In article PMC3138742 (PLoS ONE, 2011):

What was measured:
[1] = test system: EGFR phosphorylation in NIH3T3-EGFR T790M/L858R cells; experiment: Western blot of EGFR phosphorylation; format: cell-based; conditions: 6 h, immunoblotting
Description: Cell viability was determined using sulforhodamine B assay. IC50 values were determined based on the results of three independent experiments. […] Whole-cell lysates were assayed for total EGFR and phosphorylation of EGFR by immunoblotting. […] Cell viability was determined using sulforhodamine B assay.

Calu-3 xenograft = experiment: Human tumor xenograft model, tumor growth; format: in vivo; conditions: nude mice, p.o. twice daily
Description: (§1) The mice were housed and maintained under specific-pathogen free (SPF) conditions. All animal procedures were performed according to the protocol approved by the Institutional Animal Care and Use Committee at Shanghai Institute of Materia Medica, Chinese Academy of Sciences (SIMM-AE-DJ-2010-01). Under sterile conditions, well-developed tumors were cut into 1-mm^3 fragments and transplanted s.c. into the right flank of nude mice using a trocar. When the tumor reached a volume reached 100 to 200 mm^3, the mice were randomly assigned into control and treatment groups. […] The sizes of the tumors were measured twice per week using microcalipers. The tumor volume (V) was calculated as follows: V = (length×width^2)/2. The body weights of the mice were observed simultaneously.

SK-OV-3 xenograft = experiment: Human tumor xenograft model, tumor growth; format: in vivo; conditions: nude mice, p.o. twice daily
Description: as §1

ErbB2 = ErbB2 (Homo sapiens, UniProt P04626); experiment: Rapid dilution irreversibility experiment; format: biochemical; parameters: The kinase domain of EGFR, ErbB-2, IGF1R, VEGFR2, FGFR1, PDGFRα, c-Src, c-Met, RON, c-Kit, EphA2 and EphB2 were expressed; made in house; conditions: preincubated 30 min at 100-fold IC50, diluted 100-fold, sampled 180 minutes
ErbB2, sequence (P04626 720-987 limits assumed): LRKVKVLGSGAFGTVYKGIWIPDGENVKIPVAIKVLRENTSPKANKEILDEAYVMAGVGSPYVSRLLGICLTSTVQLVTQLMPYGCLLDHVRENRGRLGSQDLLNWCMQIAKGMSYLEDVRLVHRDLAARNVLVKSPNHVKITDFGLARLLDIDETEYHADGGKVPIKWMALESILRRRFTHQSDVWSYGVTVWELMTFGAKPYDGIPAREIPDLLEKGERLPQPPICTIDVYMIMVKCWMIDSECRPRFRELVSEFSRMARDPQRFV
Description: The microplate was placed in the EZ Reader (Caliper Life Sciences, MA) and wells were repeatedly sampled for 180 minutes.
To verify this, we determined the reversibility of EGFR and ErbB2 binding using a dilution method. […] After incubating, the enzyme/inhibitor mixture is diluted 100-fold (i.e., to normal reaction conditions), reaction buffer plus ATP and substrate are added, and receptor kinase activity is measured continuously. In general, a reversible inhibitor dissociates quickly, allowing immediate recovery of enzymatic activity, whereas a slowly reversible inhibitor allows a gradual increase in activity. In contrast, an irreversible inhibitor prevents recovery of enzymatic activity.

recovery of ErbB2 enzymatic activity after dilution (ErbB2): slow recovery of the enzymatic activity
Compound: CS(=O)(=O)CCNCc1ccc(-c2ccc3ncnc(Nc4ccc(OCc5cccc(F)c5)c(Cl)c4)c3c2)o1 [lapatinib, reference compound]
inhibition of EGFR phosphorylation [1]: much weaker inhibitory effect
tumor growth (Calu-3 xenograft): exhibited antitumor activity
tumor growth (SK-OV-3 xenograft): exhibited antitumor activity
